According to US11370775B2, “Substituted benzimidazole derivatives as D-amino acid oxidase (DAAO) inhibitors” (NATIONAL TAIWAN UNIVERSITY, priority 2016, dated 2022):

Legend:
[1] = biological target: T1, DAO in SK-N-SH neuroblastoma cells (Homo sapiens, UniProt P14920); assay: Cell-based DAO assay in SK-N-SH cells; set-up: key to Relative DAO activity normalize to DMSO at Final Conc. 100 uM / Relative DAO activity normalize to DMSO at Final Conc. 10 uM: fraction of DMSO-control DAO activity (1 = DMSO); settings: SK-N-SH 1.25*10^5 cells/well, drug treated for 3.5 hr; for IC50: 50 mM D-serine
T1 construct: endogenous in cells; host or cells: SK-N-SH neuroblastoma cells (ATCC)
T1 sequence (P14920 whole entry): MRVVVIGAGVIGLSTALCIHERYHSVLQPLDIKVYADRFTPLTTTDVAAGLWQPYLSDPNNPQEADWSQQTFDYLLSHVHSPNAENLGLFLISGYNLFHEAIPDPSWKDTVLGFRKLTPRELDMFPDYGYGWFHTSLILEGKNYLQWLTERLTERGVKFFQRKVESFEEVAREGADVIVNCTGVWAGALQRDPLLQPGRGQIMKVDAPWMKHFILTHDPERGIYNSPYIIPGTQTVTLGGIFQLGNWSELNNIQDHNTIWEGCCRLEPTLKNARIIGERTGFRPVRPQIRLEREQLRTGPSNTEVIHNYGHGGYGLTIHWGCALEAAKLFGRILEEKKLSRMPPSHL
Method: The SK-N-SH neuroblastoma cell line was purchased from American Type Culture Collection (ATCC). It was cultured in MEM media (Invitrogen/GIBCO, Rockville, Md.) supplemented with 10% fetal bovine serum, 1×NEAA (Invitrogen/GIBCO) at 37° C. with 5% CO2 in a humidified atmosphere. Cells were trypsinized and plated into a black 96-well plate (NUNC No. 237108) at a density of 125,000 cells/well in 50 μl before cell-based DAO assay.
The cellular DAO activity assay was using a method modified according to the report of Brandish et al. (Brandish, P. E., et al., A cell-based ultra-high-throughput screening assay for identifying inhibitors of D-amino acid oxidase. J Biomol Screen, 2006. 11(5): p. 481-7). SK-N-SH cells were suspended in assay buffers of HANKS buffer solution (Invitrogen/GIBCO No. 14025-092) with 20 mM HEPES. D-serine of (final concentration 50 mM) was added in each well as the substrate for DAO enzyme. The Amplex Red Hydrogen Peroxide/Proxidase Assay Kit (Molecular Probes/Invitrogen, cat. A22188) was used to measure H2O2 production which diffused across the cell membrane into the assay medium after DAO reaction. After seeding cells into black 96-well plate (Nunc No. 237108, Denmark), 50 μl of SK-N-SH cells (125,000 cells/well) was mixed with 50 μl drug solution (2.5 fold of interesting final concentration) and incubate at 37° C. with 5% CO2 in a humidified atmosphere for 30 minutes. After 30 minutes later, 25 μl of a 5 fold mixture containing D-serine, horseradish peroxidase (HRP), and Amplex Red was added into wells containing 100 μl of cell-drugs mixture and incubated at 37° C. with 5% CO2 in a humidified atmosphere for 3 hours. The final concentration of DMSO is below 1%. The fluorescence signal was then detected in SpectraMax M2e microplate reader (Molecular Devices, USA) with excitation at 544 nm and emission at 590 nm. The optimized assay buffer contained a final concentration of 50 mM D-serine, 0.625 units HRP, and 50 μM Amplex Red in a 125 μl assay volume.

[2] = system: MK-801-induced hyperlocomotion in C57BL/6 mice; assay: Open field, MK-801-induced hyperlocomotion; assay type: in vivo; settings: for Effect on MK-801 induced hyperlocomotion (open field): MK-801 0.2 mg/kg i.p., mice; for Effect on MK-801-induced hyperlocomotion (FIG. 1): different dosages, compared to the MK-801 group
From the text: (§1) The NMDA-receptor antagonist MK-801-induced negative or cognitive deficits in C57BL/6 mice were in a well-established drug-induced schizophrenia mouse model and as a useful pharmacological animal model to identify if the RS-D7, its analog and its prodrug improve the symptoms through the NMDA receptor.
(§2) All wild-type (WT) mice used in this study were backcrossed onto a C57BL/6J background from the Laboratory Animal Center of National Taiwan University Hospital, and all behavioral examinations were conducted in WT mice. For acclimatizing to laboratory conditions, the mice were allowed free access to food and water and were housed in groups with a 12 hours light-dark cycle in a temperature and humidity controlled room of the Psychology Department, National Taiwan University. All animals within the age of 3 months were housed individually one week before experiment testing with food and water available ad libitum. In the beginning of the experiments, the mice were handled and weighted daily at least 1 week before the behavioral experiments. The entire animal procedures were performed according to protocols approved by the Animal Care and Use Committee established by the National Taiwan University.
(§3) MK-801 was dissolved in saline and administered at a volume of 0.01 ml/g body weight. RS-D7, Drug 12083 (analog of RS-D7) and was freshly dissolved in 1% CMC to the concentration of 2 mg/ml before usage. Prodrug 28095 was freshly dissolved in NMP:HP-beta-CD:H2O (5:25:70) to the concentration of 2 mg/ml before usage. All animals were given vehicle (saline) or MK-801 (0.2 mg/kg, i.p.) 25 minutes before the behavioral experiments. Both vehicle (1% CMC or NMP:HP-beta-CD:H2O) and experimental groups (RS-D7, Drug 12083 or Prodrug 28095) were treated after 5 minutes MK-801 administration with the appropriate dose via P.O. injections (at a volume of 0.01 ml/g body weight).
(§4) For investigating the treatment effect of RS-D7 for negative and cognitive symptoms, a series of three behavioral tests (run from the first to the third week), which included open field, sucrose preference test and prepulse inhibition were performed in sequence with a 1-week interval between tests.
To assess spontaneous locomotor activity, each subject was placed into the center of an open-field apparatus (25.40*25.40*40.64 cm^3, Coulbourn Instruments, Whitehall, Pa., USA) under dim lighting condition (60 lx). Motor activity parameters (including total travel distance and travel distance per 10 minutes) were monitored and recorded over a 60 minutes period by using Smart video tracking software (Panlab, Harvard apparatus, US). For comparing the treatment effects of different treatment groups, the percentage change of rescue effect on MK-801-induced hyperlocomotion was calculated using the following formula: %=(rescue effect of drug−MK-801 effect)×100%/MK-801 effect.

[3] = system: MK-801-induced anhedonia in C57BL/6 mice; assay: Sucrose preference test, MK-801-induced anhedonia; assay type: in vivo; settings: for Effect on MK-801 induced anhedonia (sucrose preference): MK-801 0.2 mg/kg i.p., mice; for Effect on anhedonia after acute MK-801 injection (FIG. 2): different dosages
From the text: as §1, §2, §3, §4
To assess the anhedonia, one of the negative symptoms of schizophrenia, all mice underwent 4-day testing. In the beginning of the sucrose preference, all mice were deprived of water for 23 hours in all the experiment from one day before the first day. On the first day, each mouse was given free access to 2 identical bottles with water for 1 hour. Then, the 2 identical bottles were replaced that one filled with 1% (wt/vol) sucrose solution and the other with water on the second day. On the third and fourth day, each mouse was received MK-801 and RS-D7 treatment before the experiment, and also free accessed to bottles for 1 hour. After the experiment, the 2 bottles were weighted to measure the 1-hour consumption of sucrose solution and water. The sucrose preference percentage (SPP) was calculated using the following formula: % SPP=sucrose solution consumption (g)×100%/[water consumption (g)+sucrose solution consumption (g)].

SMILES | Relative DAO activity normalize to DMSO at Final Conc. 10 uM [1] | Relative DAO activity normalize to DMSO at Final Conc. 100 uM [1] | IC50 [1] [µM] | Effect on MK-801 induced hyperlocomotion (open field) ([2]; 100 mg/kg P.O.) | Effect on MK-801 induced hyperlocomotion (open field) ([2]; 200 mg/kg P.O.) | Effect on MK-801 induced hyperlocomotion (open field) ([2]; 400 mg/kg P.O.) | Effect on MK-801-induced hyperlocomotion (FIG. 1) [2] | Effect on MK-801 induced anhedonia (sucrose preference) ([3]; 100 mg/kg P.O.) | Effect on MK-801 induced anhedonia (sucrose preference) ([3]; 200 mg/kg P.O.) | Effect on MK-801 induced anhedonia (sucrose preference) ([3]; 400 mg/kg P.O.) | Effect on anhedonia after acute MK-801 injection (FIG. 2) [3] | Effect on MK-801 induced hyperlocomotion (open field) ([2]; 20 mg/kg P.O.) | Effect on MK-801 induced hyperlocomotion (open field) ([2]; 40 mg/kg P.O.) | Effect on MK-801 induced anhedonia (sucrose preference) ([3]; 20 mg/kg P.O.)
COc1c(C)cnc(C[S+]([O-])c2nc3ccc(O)cc3[nH]2)c1C (stereo not shown) [RS-D7, reference compound] | 1.05 | 0.69 | 141 | did not display the treatment effect | rescued the MK-801 induced hyperlocomotion | rescued the MK-801 induced hyperlocomotion | can rescue the MK-801-induced hyperlocomotion | rescued the MK-801 induced anhedonia deficit | rescued the MK-801 induced anhedonia deficit | rescued the MK-801 induced anhedonia deficit | rescue the anhedonia after acute MK-801 injection | – | – | –
COc1c(C)cnc(CSc2nc3cc(C(=O)O)ccc3n2CCC2=CCCCC2)c1C [compound 12083, 1-(2-(cyclohex-1-en-1-yl)ethyl)-2-(((4-methoxy-3,5-dimethylpyridin-2-yl)methyl)thio)-1H-benzo[d]imidazole-5-carboxylic acid] | 0.62 | 0.48 | 74.2 | – | – | – | can rescue the MK-801-induced hyperlocomotion | – | – | – | rescue the anhedonia after acute MK-801 injection | alleviated MK-801 induced hyperlocomotion deficits | alleviated MK-801 induced hyperlocomotion deficits | normalized MK-801 induced anhedonia
